Our source for the GI50 and TGI values is PubChem BioAssay (NCI).

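Cells were grown in 96-well plates and exposed to each compound for 48 hours at five concentrations; endpoints were interpolated linearly between bracketing concentrations, or set to the highest concentration if not reached. GI50: concentration for 50% inhibition of growth. TGI: concentration producing complete growth inhibition.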

Test systems include SF-295 CNS; SF-268 CNS; HCT-116 colon; MDA-MB-231 breast; SNB-75 CNS; MDA-MB-435; NCI/ADR-RES ovarian; HL-60(TB) leukemia; RXF 393 renal; SNB-19 CNS.
Assay in all cases: NCI-60 cell line screen, 48 h

As to `COc1ccc(OC)c(C(=O)c2oc3ccc(Br)cc3c2N)c1`, the GI50 in the assay on SF-295 CNS is 0.286 µM; with SF-268 CNS, 0.725 µM; in the assay on HCT-116 colon, 0.346 µM; in the assay on MDA-MB-231 breast, 0.847 µM; in the assay with SNB-75 CNS, 0.253 µM; with MDA-MB-435, 0.0466 µM. Besides, the GI50 in the assay on NCI/ADR-RES ovarian is 0.341 µM; in the assay with HL-60(TB) leukemia, 0.27 µM; in the assay on RXF 393 renal, 0.3 µM; with SNB-19 CNS it was 0.901 µM. The TGI with SF-295 CNS was 2.61 µM; in the assay with SF-268 CNS, greater than 59.5 µM; in the assay with HCT-116 colon it was 13.9 µM; in the assay on MDA-MB-231 breast it was 26.7 µM; with SNB-75 CNS, 1.68 µM; in the assay with MDA-MB-435, 0.253 µM. Besides, the TGI was greater than 77.7 µM in the assay on NCI/ADR-RES ovarian, 10.3 µM with HL-60(TB) leukemia, 1.69 µM in the assay on RXF 393 renal and greater than 100 µM in the assay on SNB-19 CNS.

`COc1cc(NS(=O)(=O)c2ccc(-c3cnc(C4CC4)o3)cc2)ccc1F`: the GI50 was 0.205 µM with SF-295 CNS; 2.65 µM in the assay with SF-268 CNS; 0.29 µM in the assay on HCT-116 colon; 1.36 µM in the assay with MDA-MB-231 breast; 0.158 µM in the assay on SNB-75 CNS; 0.0498 µM with MDA-MB-435. Besides, the GI50 in the assay with NCI/ADR-RES ovarian is 0.339 µM; in the assay on HL-60(TB) leukemia it was 0.247 µM; in the assay on RXF 393 renal, 0.276 µM; in the assay on SNB-19 CNS, 0.441 µM. The TGI with SF-295 CNS was 1.46 µM; with SF-268 CNS, 30.7 µM; in the assay with HCT-116 colon, 14.1 µM; with MDA-MB-231 breast, 19.5 µM; in the assay on SNB-75 CNS, 0.604 µM; in the assay on MDA-MB-435, 0.634 µM. Further, the TGI in the assay with NCI/ADR-RES ovarian came out at 10.2 µM; with HL-60(TB) leukemia it was 6.86 µM; with RXF 393 renal it was 6.52 µM; in the assay with SNB-19 CNS, 24.5 µM.

Take `COc1ccccc1Cn1cc2c(c1-c1ccccc1)CCc1cnoc1-2`: the GI50 is 1.09 µM with SF-295 CNS; 8.34 µM with SF-268 CNS; 2.8 µM in the assay with HCT-116 colon; 3.96 µM in the assay with MDA-MB-231 breast; 2.42 µM in the assay with SNB-75 CNS; 0.279 µM in the assay with MDA-MB-435. Moreover, the GI50 in the assay on NCI/ADR-RES ovarian was 0.848 µM; in the assay on HL-60(TB) leukemia, 1.32 µM; in the assay on RXF 393 renal, 2.57 µM; in the assay on SNB-19 CNS, 5.4 µM. Further, the TGI is 9.52 µM in the assay on SF-295 CNS; greater than 100 µM with SF-268 CNS; greater than 100 µM with HCT-116 colon; greater than 100 µM with MDA-MB-231 breast; 7.34 µM with SNB-75 CNS; 1.44 µM in the assay with MDA-MB-435. The TGI in the assay with NCI/ADR-RES ovarian is 4.47 µM; in the assay with HL-60(TB) leukemia, 8.36 µM; with RXF 393 renal, greater than 100 µM; in the assay with SNB-19 CNS, greater than 100 µM.

`Cc1ccc(NC(=O)NCCCOc2ccc(N3C(N)=NC(N)=NC3(C)C)cc2Cl)cc1S(=O)(=O)F`: the GI50 was 26.5 µM in the assay on SF-295 CNS; 0.916 µM with SF-268 CNS; 2.22 µM in the assay on HCT-116 colon; 11.4 µM with MDA-MB-231 breast; 8.62 µM in the assay on SNB-75 CNS; 4.46 µM with MDA-MB-435. Also, the GI50 in the assay on NCI/ADR-RES ovarian is greater than 100 µM; in the assay on HL-60(TB) leukemia, 0.775 µM; with RXF 393 renal, 98.3 µM; in the assay on SNB-19 CNS, 6.04 µM. Further, the TGI with SF-295 CNS was greater than 100 µM; in the assay on SF-268 CNS, greater than 100 µM; in the assay on HCT-116 colon, greater than 100 µM; in the assay with MDA-MB-231 breast, greater than 100 µM; in the assay with SNB-75 CNS it was 51.4 µM; with MDA-MB-435, greater than 100 µM. The TGI with NCI/ADR-RES ovarian, in the assay with HL-60(TB) leukemia, with RXF 393 renal and in the assay with SNB-19 CNS was greater than 100 µM each time.

As for `COc1cc2c3c(n(C)c(=O)c2cc1OC)-c1cc2c(cc1/C3=C\CNCCCN)OCO2`, the GI50 in the assay with SF-295 CNS is 1.08 µM; in the assay with SF-268 CNS, 0.762 µM; in the assay with HCT-116 colon, 0.107 µM; in the assay with MDA-MB-231 breast it was 0.333 µM; with SNB-75 CNS, 0.923 µM; in the assay with MDA-MB-435, 1.02 µM. For the same compound, the GI50 in the assay on NCI/ADR-RES ovarian was 5.26 µM; with HL-60(TB) leukemia it was 0.171 µM; in the assay with RXF 393 renal, 1.69 µM; in the assay on SNB-19 CNS, 0.261 µM. The TGI with SF-295 CNS amounted to 15.9 µM; with SF-268 CNS, 10.8 µM; with HCT-116 colon, 4.19 µM; with MDA-MB-231 breast, 2.01 µM; in the assay with SNB-75 CNS, 9.47 µM; with MDA-MB-435, 5.72 µM. The TGI with NCI/ADR-RES ovarian was greater than 88.5 µM; in the assay on HL-60(TB) leukemia, 0.782 µM; with RXF 393 renal, 7.1 µM; in the assay with SNB-19 CNS, 10.4 µM.

`CCC(=O)c1c(C(F)(F)F)n([O-])c2ccc(C)cc2[n+]1=O`: the GI50 in the assay with SF-295 CNS was 3.93 µM; in the assay with SF-268 CNS, greater than 50 µM; in the assay on HCT-116 colon, 13.8 µM; in the assay with MDA-MB-231 breast, 12.1 µM; in the assay on SNB-75 CNS it was 15.9 µM; in the assay with MDA-MB-435, 9.53 µM. Also, the GI50 was 6.14 µM with NCI/ADR-RES ovarian, 4.82 µM with HL-60(TB) leukemia, 23.4 µM in the assay on RXF 393 renal and 15.2 µM in the assay on SNB-19 CNS. Also, the TGI is 15.8 µM in the assay on SF-295 CNS; greater than 50 µM in the assay on SF-268 CNS; greater than 50 µM in the assay with HCT-116 colon; 37.9 µM in the assay with MDA-MB-231 breast; greater than 50 µM in the assay with SNB-75 CNS; 40.8 µM with MDA-MB-435. For the same compound, the TGI with NCI/ADR-RES ovarian was 36.5 µM; in the assay with HL-60(TB) leukemia, greater than 50 µM; in the assay with RXF 393 renal, greater than 50 µM; with SNB-19 CNS, greater than 50 µM.

Turning to `COC(=O)C12C3C4C1C1C2C3C41NC(=O)c1csc([C@@H](C[C@H](C(C)C)N(C)C(=O)[C@@H](NC(=O)[C@H]2CCCCN2C)C2CC2)OC(C)=O)n1` (some centres not stated), the GI50 in the assay with SF-295 CNS was 0.0476 µM; in the assay with SF-268 CNS, 0.0356 µM; with HCT-116 colon it was 0.0123 µM; in the assay on MDA-MB-231 breast it was 0.0414 µM; in the assay on SNB-75 CNS it was 0.00595 µM; with MDA-MB-435 it was less than 0.00333 µM. Also, the GI50 with NCI/ADR-RES ovarian was 2.7 µM; in the assay on HL-60(TB) leukemia, 0.00356 µM; in the assay with SNB-19 CNS, 0.077 µM. Also, the TGI is greater than 33.3 µM in the assay on SF-295 CNS; greater than 33.3 µM in the assay on SF-268 CNS; greater than 33.3 µM in the assay with HCT-116 colon; 10.9 µM in the assay with MDA-MB-231 breast; greater than 33.3 µM with SNB-75 CNS; 0.00992 µM in the assay on MDA-MB-435. Moreover, the TGI was greater than 33.3 µM with NCI/ADR-RES ovarian, 0.00777 µM with HL-60(TB) leukemia and greater than 33.3 µM in the assay on SNB-19 CNS.

Consider `CC(C)(C)c1ccc(O)c(CN(Cc2cc(C(C)(C)C)ccc2O)c2ccccc2)c1`, for which the TGI was 37.4 µM in the assay with SF-295 CNS; 38.3 µM in the assay with SF-268 CNS; 33.9 µM with HCT-116 colon; 31.7 µM in the assay on MDA-MB-231 breast; 52.4 µM with SNB-75 CNS; 36.4 µM in the assay on MDA-MB-435. For the same compound, the TGI was 37.6 µM with NCI/ADR-RES ovarian, 27.5 µM in the assay with RXF 393 renal and 31.5 µM in the assay with SNB-19 CNS.
